Test results as given in ChEMBL document CHEMBL6153137, “Design, Synthesis, and Biological Evaluation of Novel Orally Available Covalent CDK12/13 Dual Inhibitors for the Treatment of Tumors” (J Med Chem, 2025).
Values after ≈ are worked out from the molar mass of the structure shown. Active and inactive are the calls of the source. No cut-off for these calls is given here.

Key:
[1] = Cmax in Balb/c mouse xenografted with human MV4-11 cells at 30 mg/kg, po administered once daily via gavage; type: ADME, organism-based; details: in vivo
[2] = AUC (0 to infinity) in Sprague-Dawley rat at 15 mg/kg, po by LC-MS/MS analysis; type: ADME, organism-based; details: in vivo
[3] = Cmax in male Sprague-Dawley rat at 40 mg/kg, po administered via gavage and measured on day 1; type: ADME, organism-based; details: in vivo, time 1 day
[4] = Cmax in male Sprague-Dawley rat at 20 mg/kg, po administered via gavage and measured on day 1; type: ADME, organism-based; details: in vivo, time 1 day
Ramos = experiment: Antiproliferative activity against human Ramos cells assessed as reduction in cell viability incubated for 7 days by CellTiter-Glo reagent based luminescence analysis; type: functional; details: 168 h
[5] = Toxicity against female Sprague-Dawley rat assessed as body weight loss at 30 mg/kg, po administered once daily via gavage for 28 days and measured twice a week; type: organism-based; details: in vivo, 672 h, time 28 day
[6] = Toxicity against Balb/c mouse xenografted with human MV4-11 cells assessed as effect on body weight at 15 to 30 mg/kg, po administered once daily via gavage and measured every 3 days for 3 weeks; type: organism-based; details: in vivo, 504 h, dose 15-30 mg/kg
[7] = Toxicity against male Sprague-Dawley rat assessed as effect on hematocrit level at 10 to 40 mg/kg, po administered once daily via gavage for 28 days and measured on day 29; type: organism-based; details: in vivo, 696 h, dose 10-40 mg/kg, time 29 day
[8] = biological target: Cyclin-dependent kinase 12/13 (Homo sapiens) (UniProt Q14004+Q9NYV4); experiment: Inhibition of CDK12/13 in human SUM149PT cells assessed as reduction in level of phosphorylation of Ser2 on RNA Pol II CTD at 250 to 1000 nM by western blot analysis; type: cell-based; details: dose 250-1000 nM, time lower 1.0 hrs, time upper […]
[9] = GSH reactivity assessed as half life to adduct formation at 1 uM by LC-MS/MS analysis; type: physicochemical
[10] = AUC(0 to t) in male Sprague-Dawley rat at 10 mg/kg, po administered once daily via gavage for 28 days; type: ADME, organism-based; details: in vivo, 672 h, time 28 day
[11] = Cmax in female Sprague-Dawley rat at 15 mg/kg, po administered via gavage and measured on day 1; type: ADME, organism-based; details: in vivo, time 1 day
NAMALVA = experiment: Antiproliferative activity against human NAMALWA cells assessed as reduction in cell viability incubated for 7 days by CellTiter-Glo reagent based luminescence analysis; type: functional; details: 168 h
[12] = AUC(0 to t) in female Sprague-Dawley rat at 30 mg/kg, po administered via gavage and measured on day 1; type: ADME, organism-based; details: in vivo, 24 h, time 1 day
[13] = Half life in male Sprague-Dawley rat at 10 mg/kg, po administered via gavage and measured on day 1; type: ADME, organism-based; details: in vivo, time 1 day
[14] = AUC(0 to t) in female Sprague-Dawley rat at 7.5 mg/kg, po administered via gavage and measured on day 1; type: ADME, organism-based; details: in vivo, 24 h, time 1 day
HEP Sf9 = experiment: Inhibition of human recombinant N-terminal GST-tagged CDK6/C-terminal 6X His-tagged Cyclin D3 S259A mutant expressed in HEP Sf9 cells using ATP as substrate at 2 uM measured after 60 mins by ADP-Glo reagent based luminescence analysis
[15] = Kinetic solubility of the compound in phosphate buffer at pH 7.4 measured after 24 hrs by HPLC-UV analysis; type: physicochemical; details: read-out: Kinetic_solubility
[16] = Toxicity against female Sprague-Dawley rat assessed as effect on glucose level in blood at 7.5 to 30 mg/kg, po administered once daily via gavage for 28 days and measured on day 29; type: organism-based; details: in vivo, 696 h, dose 7.5-30 mg/kg, time 29 day
[17] = AUC in Balb/c mouse xenografted with human MV4-11 cells at 15 mg/kg, po administered once daily via gavage; type: ADME, organism-based; details: in vivo
[18] = Toxicity against female Sprague-Dawley rat assessed as effect on body weight at 7.5 to 15 mg/kg, po administered once daily via gavage for 28 days and measured twice a week; type: organism-based; details: in vivo, 672 h, dose 7.5-15 mg/kg, time 28 day
[19] = Half life in female Sprague-Dawley rat at 30 mg/kg, po administered via gavage and measured on day 1; type: ADME, organism-based; details: in vivo, time 1 day
[20] = Toxicity against male Sprague-Dawley rat assessed as effect on mean corpuscular hemoglobin at 10 to 40 mg/kg, po administered once daily via gavage for 28 days and measured on day 29; type: organism-based; details: in vivo, 696 h, dose 10-40 mg/kg, time 29 day
[21] = biological target: Cyclin-dependent kinase 7 (Homo sapiens) (UniProt P50613); experiment: Inhibition of CDK7 in human SUM149PT cells assessed as reduction in level of phosphorylation of Ser5 on RNA Pol II CTD at 500 nM incubated for 12 hrs followed by drug wash-out and measured after 72 hrs by western blot analysis; type: cell-based
HCT-116 = experiment: Antiproliferative activity against human HCT-116 cells assessed as reduction in cell viability incubated for 7 days by CellTiter-Glo reagent based luminescence analysis; type: functional; details: HCT-116, 168 h
[22] = Toxicity against male Sprague-Dawley rat assessed as effect on chlorine level in blood at 10 to 40 mg/kg, po administered once daily via gavage for 28 days and measured on day 29; type: organism-based; details: in vivo, 696 h, dose 10-40 mg/kg, time 29 day
[23] = AUC(0 to t) in male Sprague-Dawley rat at 40 mg/kg, po administered via gavage and measured on day 1; type: ADME, organism-based; details: in vivo, 24 h, time 1 day
OCI-AML-3 = experiment: Antiproliferative activity against human OCI-AML-3 cells assessed as reduction in cell viability incubated for 7 days by CellTiter-Glo reagent based luminescence analysis; type: functional; details: OCI-AML-3, 168 h
[24] = biological target: Cyclin-dependent kinase 2/cyclin E1 (Homo sapiens) (UniProt P24864+P24941); experiment: Inhibition of human recombinant N-terminal GST-tagged CDK2/N-terminal GST-tagged Cyclin E1 expressed in HEP Sf9 cells using ATP as substrate at 2 uM measured after 60 mins by ADP-Glo reagent based luminescence analysis
[25] = Oral bioavailability in Sprague-Dawley rat at 5 mg/kg measured for 24 hrs by LC-MS/MS analysis; type: ADME, organism-based; details: in vivo
[26] = Toxicity against female Sprague-Dawley rat assessed as increase in neutrophils content at 7.5 to 30 mg/kg, po administered once daily via gavage for 28 days and measured on day 29; type: organism-based; details: in vivo, 696 h, dose 7.5-30 mg/kg, time 29 day
[27] = biological target: CDK1/Cyclin E (Homo sapiens) (UniProt P06493+P24864); experiment: Inhibition of human recombinant N-terminal GST-tagged CDK1/Cyclin E1 expressed in HEP Sf9 cells using ATP as substrate at 2 uM measured after 60 mins by ADP-Glo reagent based luminescence analysis
[28] = Toxicity against male Sprague-Dawley rat assessed as effect on phosphorus level in blood at 10 to 40 mg/kg, po administered once daily via gavage for 28 days and measured on day 29; type: organism-based; details: in vivo, 696 h, dose 10-40 mg/kg, time 29 day
[29] = Toxicity against female Sprague-Dawley rat assessed as effect on monocytes level at 7.5 to 30 mg/kg, po administered once daily via gavage for 28 days and measured on day 29; type: organism-based; details: in vivo, 696 h, dose 7.5-30 mg/kg, time 29 day
MV4-11 = experiment: Antitumor activity against human MV4-11 cells xenografted in Balb/c nude mouse assessed as inhibition of tumor growth at 15 mg/kg, po administered once daily via gavage and measured on day 21; type: functional; details: MV4-11, 504 h, time 21 day, read-out: TGI

Sequence of Cyclin-dependent kinase 7 (Homo sapiens) (P50613 whole entry): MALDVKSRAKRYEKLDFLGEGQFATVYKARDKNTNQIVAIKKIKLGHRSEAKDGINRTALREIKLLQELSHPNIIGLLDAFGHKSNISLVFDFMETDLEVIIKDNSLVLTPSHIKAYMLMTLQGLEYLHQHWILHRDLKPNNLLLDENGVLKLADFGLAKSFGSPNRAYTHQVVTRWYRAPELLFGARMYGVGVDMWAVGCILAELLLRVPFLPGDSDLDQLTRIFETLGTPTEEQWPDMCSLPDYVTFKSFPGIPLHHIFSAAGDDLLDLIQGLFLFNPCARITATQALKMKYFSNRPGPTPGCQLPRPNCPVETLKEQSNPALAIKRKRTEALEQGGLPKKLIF
Sequence of CDK1/Cyclin E (Homo sapiens) (P06493 whole entry, looked up): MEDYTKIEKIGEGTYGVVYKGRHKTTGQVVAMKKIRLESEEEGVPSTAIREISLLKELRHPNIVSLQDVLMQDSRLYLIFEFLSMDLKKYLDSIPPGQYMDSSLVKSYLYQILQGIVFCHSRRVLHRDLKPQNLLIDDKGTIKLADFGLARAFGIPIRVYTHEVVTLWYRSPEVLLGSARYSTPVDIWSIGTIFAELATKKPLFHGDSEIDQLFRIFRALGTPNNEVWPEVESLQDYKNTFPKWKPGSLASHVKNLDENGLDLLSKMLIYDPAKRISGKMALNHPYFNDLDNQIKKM
Sequence of CDK1/Cyclin E (Homo sapiens) (P24864 whole entry, looked up): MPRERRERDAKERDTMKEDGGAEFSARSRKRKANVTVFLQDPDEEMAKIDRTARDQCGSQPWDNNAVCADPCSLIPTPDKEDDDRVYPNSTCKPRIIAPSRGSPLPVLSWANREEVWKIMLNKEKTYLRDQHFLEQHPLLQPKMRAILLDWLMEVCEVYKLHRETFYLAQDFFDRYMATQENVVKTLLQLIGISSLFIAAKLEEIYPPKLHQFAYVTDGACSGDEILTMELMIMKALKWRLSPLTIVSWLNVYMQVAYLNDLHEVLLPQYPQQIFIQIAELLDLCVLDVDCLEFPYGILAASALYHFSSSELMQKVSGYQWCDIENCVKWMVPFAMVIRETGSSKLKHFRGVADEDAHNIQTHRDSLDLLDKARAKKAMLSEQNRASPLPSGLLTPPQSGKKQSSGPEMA

## C=CC(=O)N1CCc2c(ncnc2N2CC[C@@H](Nc3ncc(Cl)c(OC)n3)C2)C1
[1]
  Cmax: 1350 ng/mL
[2]
  AUC(0-inf): 2280 ng·h/mL
[3]
  Cmax: 1660 ng/mL
[4]
  Cmax: 1070 ng/mL
Ramos
  IC50: 101 nM
[5]
  Activity: Toxic
[6]
  Activity: Non-toxic
[7]
  Activity: Non-toxic
[8]
  inhibition: Time-dependent-effect
[9]
  t1/2: 1.35 h
[10]
  AUCt: 1330 ng·h/mL
[11]
  Cmax: 1280 ng/mL
NAMALVA
  IC50: 98 nM
[12]
  AUCt: 9090 ng·h/mL
[13]
  half-life: 3.2 h
[14]
  AUCt: 1640 ng·h/mL
HEP Sf9
  inhibition: 23%
[15]
  solubility kinetic at 24 h: 59.4 µg/mL (≈ 143 µM)
[16]
  Activity: Non-toxic
[17]
  AUC: 2140 ng·h/mL
[18]
  Activity: Non-toxic
[19]
  half-life: 4 h
[20]
  Activity: Non-toxic
[21]
  inhibition: inactive
HCT-116
  IC50: 128 nM
[22]
  Activity: Non-toxic
[23]
  AUCt: 7120 ng·h/mL
OCI-AML-3
  IC50: 137 nM
[24]
  inhibition: 63%
[25]
  bioavailability: 35.7%
[26]
  Activity: Toxic
[27]
  inhibition: 24%
[28]
  Activity: Non-toxic
[29]
  Activity: Non-toxic
MV4-11
  inhibition in vivo at 15 mg/kg: 31%
